The target in one assay is human mTOR enzyme (Homo sapiens, UniProt P42345). In words: HTRF mTOR enzyme (kinase) assay. Type of assay: biochemical. The following applies: rated class; 5 μM ATP, 0.2 μM GST-S6K; read-out: hMTOR IC50. (In general: TR-FRET usually uses a lanthanide donor and a delayed reading to cut background.)
The test system of assay [1] is mTORC2 activity: phosphorylated AKT Ser473 (pAKT S473) in PC3 cells. In words: mTOR target engagement assay, immunofluorescent cell-based, mTORC2 readout. The following applies: Homo sapiens, PC-3, 1.5 h, rated class, 90 min treatment. In short, it runs like this:
(§1)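 Read-out is immunofluorescence intensity, normalized to DMSO-only wells and fitted to a sigmoidal Hill equation for IC50. The mTORC1 arm probes phospho-4E-BP1 Thr37/46 and the mTORC2 arm phospho-AKT Ser473.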

In assay [2] the test system is mTORC1 activity: phosphorylated 4E-BP1 Thr37/46 (p4E-BP1 Thr37/46) in PC3 cells. In words: mTOR target engagement assay, immunofluorescent cell-based, mTORC1 readout. The following applies: Homo sapiens, PC-3, 1.5 h, rated class, 90 min treatment, read-out: P4EBP1 IC50. In short, it runs like this:
as §1

The values that follow come from patent US8883801B2, “Substituted pyrazolo[1,5-a]pyrimidines as mTOR inhibitors” (Merck Sharp & Dohme Corp., priority 2010, dated 2014).

Sequence of human mTOR enzyme (P42345 1360-2549 limits assumed): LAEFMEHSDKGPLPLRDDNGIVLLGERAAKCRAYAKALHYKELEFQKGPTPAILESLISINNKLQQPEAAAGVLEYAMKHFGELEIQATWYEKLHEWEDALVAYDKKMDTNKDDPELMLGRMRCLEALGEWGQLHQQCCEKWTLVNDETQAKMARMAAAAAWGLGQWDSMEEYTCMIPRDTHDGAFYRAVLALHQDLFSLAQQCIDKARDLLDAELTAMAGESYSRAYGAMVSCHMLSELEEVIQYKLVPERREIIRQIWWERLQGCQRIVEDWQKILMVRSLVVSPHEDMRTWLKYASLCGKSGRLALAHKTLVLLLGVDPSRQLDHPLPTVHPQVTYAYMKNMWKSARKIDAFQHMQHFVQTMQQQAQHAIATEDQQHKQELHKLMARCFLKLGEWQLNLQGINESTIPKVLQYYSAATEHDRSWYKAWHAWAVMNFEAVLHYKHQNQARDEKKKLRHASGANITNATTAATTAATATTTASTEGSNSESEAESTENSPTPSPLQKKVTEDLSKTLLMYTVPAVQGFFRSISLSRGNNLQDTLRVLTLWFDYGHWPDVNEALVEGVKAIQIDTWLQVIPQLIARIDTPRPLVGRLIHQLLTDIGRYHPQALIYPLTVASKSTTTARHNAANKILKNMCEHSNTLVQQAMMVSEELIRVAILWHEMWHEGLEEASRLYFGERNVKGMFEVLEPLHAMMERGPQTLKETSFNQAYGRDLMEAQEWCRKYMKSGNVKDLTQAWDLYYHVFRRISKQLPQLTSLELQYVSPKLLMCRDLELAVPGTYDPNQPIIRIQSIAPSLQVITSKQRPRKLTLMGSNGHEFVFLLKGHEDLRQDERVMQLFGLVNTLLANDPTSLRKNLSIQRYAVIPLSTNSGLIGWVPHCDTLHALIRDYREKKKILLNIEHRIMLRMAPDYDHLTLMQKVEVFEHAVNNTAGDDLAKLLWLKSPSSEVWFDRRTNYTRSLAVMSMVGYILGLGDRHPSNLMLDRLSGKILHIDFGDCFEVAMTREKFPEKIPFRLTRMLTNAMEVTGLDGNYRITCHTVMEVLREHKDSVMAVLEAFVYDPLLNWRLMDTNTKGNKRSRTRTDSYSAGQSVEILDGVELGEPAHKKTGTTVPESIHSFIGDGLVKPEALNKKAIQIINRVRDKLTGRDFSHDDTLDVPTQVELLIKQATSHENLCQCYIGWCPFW

Usually IC50 stands for the point on the concentration scale where inhibition reaches its midpoint. On to `COCCO[C@]1(c2nnn[nH]2)CC[C@@H](c2nc3c(-c4ccc(-c5ccccc5)nc4)cnn3c(N)c2S(C)(=O)=O)CC1` [Compound 119], for which the IC50 on human mTOR enzyme lay within 1 to 100 nM; in assay [1] it was 1000 to 2000 nM; in assay [2], 2000 to 5000 nM.

Turning to `COCCO[C@]1(C(=N)N)CC[C@@H](c2nc3c(-c4cnn(-c5ccccc5)c4)cnn3c(N)c2S(C)(=O)=O)CC1` [Compound 120, (1R,4R)-4-(7-amino-6-(methylsulfonyl)-3-(1-phenyl-1H-pyrazol-4-yl)pyrazolo[1,5-a]pyrimidin-5-yl)-1-(2-methoxyethoxy)cyclohexanecarboximidamide], the figures for the IC50 (at human mTOR enzyme; in assay [1]; in assay [2]) were 1 to 100 nM, 100 to 1000 nM and 100 to 1000 nM, respectively.

Turning to `COCCO[C@]1(c2noc(=O)[nH]2)CC[C@@H](c2nc3c(-c4cnn(-c5ccccc5)c4)cnn3c(N)c2S(C)(=O)=O)CC1` [Compound 121, 3-((1R,4R)-4-(7-amino-6-(methylsulfonyl)-3-(1-phenyl-1H-pyrazol-4-yl)pyrazolo[1,5-a]pyrimidin-5-yl)-1-(2-methoxyethoxy)cyclohexyl)-1,2,4-oxadiazol-5(4H)-one], the IC50 at human mTOR enzyme was 1 to 100 nM; in assay [1], 100 to 1000 nM; in assay [2] it was 100 to 1000 nM.

For `COCCO[C@]1(C(=O)c2nnc[nH]2)CC[C@@H](c2nc3c(-c4cnn(-c5ccccc5)c4)cnn3c(N)c2S(C)(=O)=O)CC1` [Compound 122, ((1R,4R)-4-(7-amino-6-(methylsulfonyl)-3-(1-phenyl-1H-pyrazol-4-yl)pyrazolo[1,5-a]pyrimidin-5-yl)-1-(2-methoxyethoxy)cyclohexyl)(4H-1,2,4-triazol-3-yl)methanone], the IC50 (at human mTOR enzyme; in assay [1]; in assay [2]) was 1 to 100 nM each time.

With `COCCO[C@]1(C(=O)c2nnc[nH]2)CC[C@@H](c2nc3c(-c4ccc(-c5ccccc5)nc4)cnn3c(N)c2S(C)(=O)=O)CC1` [Compound 125, ((1R,4R)-4-(7-amino-6-(methylsulfonyl)-3-(6-phenylpyridin-3-yl)pyrazolo[1,5-a]pyrimidin-5-yl)-1-(2-methoxyethoxy)cyclohexyl)(4H-1,2,4-triazol-3-yl)methanone], the IC50 (on human mTOR enzyme; in assay [1]; in assay [2]) was 1 to 100 nM in each case.

As to `COCCO[C@]1(C(=O)c2nnc[nH]2)CC[C@@H](c2cc(N)n3ncc(-c4ccc(-c5ccccc5)nc4)c3n2)CC1` [Compound 126, ((1R,4R)-4-(7-amino-3-(6-phenylpyridin-3-yl)pyrazolo[1,5-a]pyrimidin-5-yl)-1-(2-methoxyethoxy)cyclohexyl)(4H-1,2,4-triazol-3-yl)methanone], the results for the IC50 (on human mTOR enzyme; in assay [1]; in assay [2]) were 1 to 100 nM, 100 to 1000 nM and 1000 to 2000 nM, respectively.

For the compound `COCCO[C@]1(c2nnc[nH]2)CC[C@@H](c2nc3c(-c4cnn(-c5ccccc5)c4)cnn3c(N)c2S(C)(=O)=O)CC1` [Compound 127, 5-((1R,4R)-4-(2-methoxyethoxy)-4-(4H-1,2,4-triazol-3-yl)cyclohexyl)-6-(methylsulfonyl)-3-(1-phenyl-1H-pyrazol-4-yl)pyrazolo[1,5-a]pyrimidin-7-amine], the IC50 lay in the range of 1 to 100 nM at human mTOR enzyme, 100 to 1000 nM in assay [1] and 100 to 1000 nM in assay [2].

For `COCCO[C@]1(c2nnc[nH]2)CC[C@@H](c2nc3c(-c4ccc(-c5ccccc5)nc4)cnn3c(N)c2S(C)(=O)=O)CC1` [Compound 128], the IC50 fell in the range of 1 to 100 nM at human mTOR enzyme, 100 to 1000 nM in assay [1] and 100 to 1000 nM in assay [2].

On to `COCCO[C@]1(C(=O)CO)CC[C@@H](c2nc3c(-c4cnn(-c5ccccc5)c4)cnn3c(N)c2S(C)(=O)=O)CC1` [Compound 129, 1-((1R,4R)-4-(7-amino-6-(methylsulfonyl)-3-(1-phenyl-1H-pyrazol-4-yl)pyrazolo[1,5-a]pyrimidin-5-yl)-1-(2-methoxyethoxy)cyclohexyl)-2-hydroxyethanone], for which the IC50 at human mTOR enzyme was 1 to 100 nM; in assay [1], 1 to 100 nM; in assay [2], 100 to 1000 nM.

`Nc1c(Br)c(C2CCC(O)(C(=O)O)CC2)nc2c(-c3ccc(-c4ccccc4)nc3)cnn12` (stereo not drawn) [Compound 131, 4-(7-amino-6-bromo-3-(6-phenylpyridin-3-yl)pyrazolo[1,5-a]pyrimidin-5-yl)-1-hydroxycyclohexanecarboxylic acid]: the IC50 lay in the range of 1 to 100 nM on human mTOR enzyme, 1000 to 2000 nM in assay [1] and 2000 to 5000 nM in assay [2].

On to `CC(=O)c1c(C2CCC(CO)(C(=O)O)CC2)nc2c(-c3ccc(-c4ccccc4)nc3)cnn2c1N` (stereo not drawn) [Compound 133, 4-(6-acetyl-7-amino-3-(6-phenylpyridin-3-yl)pyrazolo[1,5-a]pyrimidin-5-yl)-1-(hydroxymethyl)cyclohexanecarboxylic acid], for which the IC50 at human mTOR enzyme was 1 to 100 nM; in assay [1] it was 100 to 1000 nM; in assay [2], 100 to 1000 nM.

On to `CC(=O)c1c(N)n2ncc(-c3ccc(-c4ccccc4)nc3)c2nc1[C@H]1CC[C@@](O)(CO)CC1` [Compound 139, 1-(7-amino-5-((1R,4R)-4-hydroxy-4-(hydroxymethyl)cyclohexyl)-3-(6-phenylpyridin-3-yl)pyrazolo[1,5-a]pyrimidin-6-yl)ethanone], for which the IC50 at human mTOR enzyme was 1 to 100 nM; in assay [1], 100 to 1000 nM; in assay [2], 100 to 1000 nM.

Regarding `CC(=O)c1c(N)n2ncc(-c3ccc(-c4ccccc4)nc3)c2nc1[C@H]1CC[C@](O)(CO)CC1` [Compound 140, 1-(7-amino-5-((1S,4S)-4-hydroxy-4-(hydroxymethyl)cyclohexyl)-3-(6-phenylpyridin-3-yl)pyrazolo[1,5-a]pyrimidin-6-yl)ethanone], the IC50 was in the range of 1 to 100 nM on human mTOR enzyme, 1 to 100 nM in assay [1] and 100 to 1000 nM in assay [2].

Regarding `CC(=O)c1c(C2CCC(O)(CO)CC2)nc2c(-c3ccc(-c4nccs4)nc3)cnn2c1N` (stereo not drawn) [Compound 156, 1-(7-amino-5-(4-hydroxy-4-(hydroxymethyl)-cyclohexyl)-3-(6-(thiazol-2-yl)pyridin-3-yl)pyrazolo[1,5-a]pyrimidin-6-yl)ethanone], the IC50 fell in the range of 1 to 100 nM at human mTOR enzyme, 100 to 1000 nM in assay [1] and 100 to 1000 nM in assay [2].

Regarding `CC(=O)c1c(C2CCC(O)(CO)CC2)nc2c(-c3cnc(-c4ccccc4)nc3)cnn2c1N` (stereo not drawn) [Compound 158, 1-(7-amino-5-(4-hydroxy-4-(hydroxymethyl)-cyclohexyl)-3-(2-phenylpyrimidin-5-yl)pyrazolo[1,5-a]pyrimidin-6-yl)ethanone], the results for the IC50 (on human mTOR enzyme; in assay [1]; in assay [2]) were 1 to 100 nM, 100 to 1000 nM and 100 to 1000 nM, respectively.

For `CC(=O)c1c(C2CCC(O)(CNS(C)(=O)=O)CC2)nc2c(-c3ccc(-c4ccccc4)nc3)cnn2c1N` (stereo not drawn) [Compound 160, N-((4-(6-acetyl-7-amino-3-(6-phenylpyridin-3-yl)pyrazolo[1,5-a]pyrimidin-5-yl)-1-hydroxycyclohexyl)methyl)methanesulfonamide], the IC50 on human mTOR enzyme fell in the range of 1 to 100 nM; in assay [1], 100 to 1000 nM; in assay [2], 100 to 1000 nM.

Turning to `CC(=O)c1c(N)n2ncc(-c3ccc(-c4ccccc4)nc3)c2nc1[C@H]1CC[C@@](O)(CS(C)(=O)=O)CC1` [Compound 161, 1-(7-amino-5-((1R,4R)-4-hydroxy-4-(methylsulfonylmethyl)cyclohexyl)-3-(6-phenylpyridin-3-yl)pyrazolo[1,5-a]pyrimidin-6-yl)ethanone], the IC50 lay in the range of 1 to 100 nM on human mTOR enzyme, 100 to 1000 nM in assay [1] and 100 to 1000 nM in assay [2].

On to `CC(=O)c1c(N)n2ncc(-c3ccc(-c4ccccc4)nc3)c2nc1[C@H]1CC[C@](O)(CS(C)(=O)=O)CC1` [Compound 162, 1-(7-amino-5-((1S,4S)-4-hydroxy-4-(methylsulfonylmethyl)cyclohexyl)-3-(6-phenylpyridin-3-yl)pyrazolo[1,5-a]pyrimidin-6-yl)ethanone], for which the IC50 at human mTOR enzyme was 1 to 100 nM; in assay [1], 1 to 100 nM; in assay [2], 100 to 1000 nM.

For `CS(=O)(=O)c1c(C2CCC(O)(CO)CC2)nc2c(-c3cnn(-c4ccccc4)c3)cnn2c1N` (stereo not drawn) [Compound 166, 4-(7-amino-6-(methylsulfonyl)-3-(1-phenyl-1H-pyrazol-4-yl)pyrazolo[1,5-a]pyrimidin-5-yl)-1-(hydroxymethyl)cyclohexanol], the figures for the IC50 (on human mTOR enzyme; in assay [1]; in assay [2]) were 1 to 100 nM, 1 to 100 nM and 100 to 1000 nM, respectively.
